# Experimental data as given in ChEMBL document CHEMBL1134179, “Equilibrium and kinetics studies of transnitrosation between S-nitrosothiols and thiols” (Bioorg Med Chem Lett, 2001).
# Experiment: pKa value was determined
# Assay type: physicochemical
row,pKa,SMILES
1,8.75,N[C@@H](CCC(=O)N[C@@H](CS)C(=O)NCC(=O)O)C(=O)O [GLUTATHIONE]
2,8.53,CC(C)(S)[C@@H](N)C(=O)O [PENICILLAMINE]
3,9.9,CC(=O)NC(C(=O)O)C(C)(C)S (stereo not given) [N-ACETYL PENICILLAMINE]
4,9.52,CC(=O)N[C@@H](CS)C(=O)O [ACETYLCYSTEINE]
5,6.5,CCOC(=O)[C@@H](N)CS
